According to US20060069132A1, “Azolecarboxamide herbicides” (priority 2004, published 2006):

Assays:
ducksalad [1] = test: Test B flooded paddy test; assay type: in vivo, Heteranthera limosa; conditions: 1000 g ai/ha, scale 0 to 100 (0 no effect, 100 complete control)
Procedure, shortened: (§1)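 After treating 2-leaf paddy plants or 2–18 cm postemergence plants (1 to 4 leaves) with formulated chemical, researchers kept them in a greenhouse for 13–15 days. Effects were judged visually versus controls: 0 indicates none, 100 total control.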

large crabgrass = test: Test B pre-/postemergence herbicide test; assay type: in vivo, Digitaria sanguinalis; conditions: for Crabgrass, Large plant response rating: postemergence, scale 0 (no effect) to 100 (complete control)
Procedure, shortened: (§2)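 Greenhouse pot assay with simultaneous preemergence (treated seed) and postemergence (2–18 cm seedlings) applications of surfactant-containing, non-phytotoxic solvent formulations. Response scored visually 13–15 days later on a 0–100 scale, 100 meaning complete control.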

[2] = system: smallflower umbrella sedge; test: Test C flooded paddy test; assay type: in vivo, Cyperus difformis
cocklebur = test: Test B pre-/postemergence herbicide test; assay type: in vivo, Xanthium strumarium; conditions: for Cocklebur plant response rating: postemergence, scale 0 (no effect) to 100 (complete control)
Procedure, shortened: (§3)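 Flooded paddy rice and barnyardgrass were treated at the 2-leaf stage; upland plantings received compound either on sown seed or on 1- to 4-leaf seedlings. All were kept 13–15 days in a greenhouse and scored visually, 0–100, relative to untreated plants.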

pigweed = test: Test B pre-/postemergence herbicide test; assay type: in vivo, Amaranthus retroflexus
Procedure, shortened: as §2

rice [3] = test: Test C flooded paddy test; assay type: in vivo, Oryza sativa
Procedure, shortened: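 Postemergence sprays applied to plants 2 to 18 cm tall (1- to 4-leaf stage); paddy species grown to 2-leaf stage under flooding. After 12 to 14 days in greenhouse, visual rating versus untreated controls on 0–100 scale (0 no effect, 100 complete control).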

barnyardgrass [4] = test: Test C flooded paddy test; assay type: in vivo, Echinochloa crus-galli
Procedure, shortened: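 Greenhouse test with a 12–14 day hold after application and visual comparison with controls. Emerged plants were 1- to 4-leaf stage (2–18 cm) when sprayed postemergence, and the paddy barnyardgrass was at 2 leaves under flooded conditions. 100 = complete control.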

wheat = test: Test B postemergence herbicide test; assay type: in vivo, Triticum aestivum; parameters: key to Wheat plant response rating: 0 = no effect, 100 = complete control; conditions: postemergence, visual rating, scale 0 (no effect) to 100 (complete control)
Procedure, shortened: (§4)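 Formulated test chemicals went onto postemergence plants measuring 2 to 18 cm, at one to four leaves. For the paddy assay, species had reached two leaves. Scoring took place 13–15 days later by eye, relative to untreated plants, using 0 for no effect up to 100 for full control.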

barnyardgrass [5] = test: Test B pre-/postemergence herbicide test; assay type: in vivo, Echinochloa crus-galli; conditions: 0 = no effect, 100 = complete control, preemergence
Procedure, shortened: as §3

wild oat = test: Test B postemergence herbicide test; assay type: in vivo, Avena fatua; conditions: postemergence, visual rating, scale 0 (no effect) to 100 (complete control)
Procedure, shortened: as §4

giant foxtail = test: Test B pre-/postemergence herbicide test; assay type: in vivo, Setaria faberi; conditions: for Foxtail, Giant plant response rating: postemergence, scale 0 (no effect) to 100 (complete control)
Procedure, shortened: as §2

rice [6] = test: Test B flooded paddy test; assay type: in vivo, Oryza sativa; conditions: 1000 g ai/ha, scale 0 to 100 (0 no effect, 100 complete control)
Procedure, shortened: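 Greenhouse test; postemergence application to plants at 1–4 leaves (2–18 cm); paddy species at 2 leaves; evaluated visually vs controls at 13–15 days; scale 0–100 (100 = complete control).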

Surinam grass = test: Test B pre-/postemergence herbicide test; assay type: in vivo, Urochloa decumbens; conditions: for Surinam Grass plant response rating: postemergence, scale 0 (no effect) to 100 (complete control)
Procedure, shortened: as §2

velvetleaf = test: Test B pre-/postemergence herbicide test; assay type: in vivo, Abutilon theophrasti; conditions: for Velvetleaf plant response rating: postemergence, scale 0 (no effect) to 100 (complete control)
Procedure, shortened: as §2

[7] = system: small flower umbrella sedge; test: Test B flooded paddy test; assay type: in vivo, Cyperus difformis; conditions: 1000 g ai/ha, scale 0 to 100 (0 no effect, 100 complete control)
Procedure, shortened: as §1

ducksalad [8] = test: Test C flooded paddy test; assay type: in vivo, Heteranthera limosa
corn = test: Test B pre-/postemergence herbicide test; assay type: in vivo, Zea mays; conditions: for Corn plant response rating: postemergence, scale 0 (no effect) to 100 (complete control)
Procedure, shortened: as §2

morningglory = test: Test B pre-/postemergence herbicide test; assay type: in vivo, Ipomoea coccinea; conditions: for Morningglory plant response rating: postemergence, scale 0 (no effect) to 100 (complete control)
Procedure, shortened: as §3

rice [9] = test: Test B pre-/postemergence herbicide test; assay type: in vivo, Oryza sativa; conditions: 0 = no effect, 100 = complete control, preemergence
Procedure, shortened: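 Species tested were Echinochloa crus-galli, Ipomoea coccinea, Xanthium strumarium and Oryza sativa, treated both before emergence and at the 1- to 4-leaf stage; rice and barnyardgrass were also tested under flooding at 2 leaves. Greenhouse incubation lasted 13–15 days before visual 0–100 scoring.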

lambsquarters = test: Test B pre-/postemergence herbicide test; assay type: in vivo, Chenopodium album; conditions: for Lambsquarters plant response rating: postemergence, scale 0 (no effect) to 100 (complete control)
Procedure, shortened: as §2

blackgrass = test: Test B postemergence herbicide test; assay type: in vivo, Alopecurus myosuroides; conditions: postemergence, visual rating, scale 0 (no effect) to 100 (complete control)
Procedure, shortened: as §1

barnyardgrass [10] = test: Test B flooded paddy test; assay type: in vivo, Echinochloa crus-galli; conditions: 1000 g ai/ha, scale 0 to 100 (0 no effect, 100 complete control)
Procedure, shortened: as §1

[11] = 125 g ai/ha, 0 = no effect, 100 = complete control, preemergence
[12] = 500 g ai/ha, visual rating, 0 = no effect, 100 = complete control, preemergence
[13] = 62 g ai/ha, scale 0 to 100 (0 no effect, 100 complete control)
[14] = 125 g ai/ha, scale 0 to 100 (0 no effect, 100 complete control)
[15] = 250 g ai/ha, scale of 0 to 100, 0 is no effect, 100 is complete control
[16] = 500 g ai/ha, visual rating after 12 to 14 days, scale 0 to 100 (0 no effect, 100 complete control)

CCc1cn(C(C)(C)C)nc1C(=O)Nc1cc(C(=O)N(C)C)ccn1 [Compound 232]
Ducksalad plant response rating (ducksalad [1]): 80 | Crabgrass, Large plant response rating (0 to 100 scale) (large crabgrass; [11]): 60 | Plant response rating, Crabgrass, Large (large crabgrass; [12]): 100 | Crabgrass, Large plant response rating (large crabgrass; 125 g ai/ha, visual rating): 10 | Crabgrass, Large plant response rating (large crabgrass; 500 g ai/ha, visual rating): 20 | Sedge, Umbrella plant response rating [2, 13]: 0 | Sedge, Umbrella plant response rating [2, 14]: 35 | Sedge, Umbrella plant response rating [2, 15]: 55 | Plant response rating, Sedge, Umbrella [2, 16]: 85 | Cocklebur plant response rating (0 to 100 scale) (cocklebur; [11]): 0 | Plant response rating, Cocklebur (cocklebur; [12]): 0 | Cocklebur plant response rating (cocklebur; 125 g ai/ha, visual rating): 10 | Cocklebur plant response rating (cocklebur; 500 g ai/ha, visual rating): 30 | Pigweed plant response rating (0 to 100 scale) (pigweed; [11]): 90 | Plant response rating, Pigweed (pigweed; [12]): 90 | Pigweed plant response rating (pigweed; postemergence, 500 g ai/ha, visual rating, scale 0 (no effect) to 100 (complete control)): 40 | Rice plant response rating (rice [3]; [13]): 0 | Rice plant response rating (rice [3]; [14]): 20 | Rice plant response rating (rice [3]; [15]): 35 | Plant response rating, Rice (rice [3]; [16]): 60 | Barnyardgrass plant response rating (barnyardgrass [4]; [13]): 0 | Barnyardgrass plant response rating (barnyardgrass [4]; [14]): 0 | Barnyardgrass plant response rating (barnyardgrass [4]; [15]): 0 | Plant response rating, Barnyardgrass (barnyardgrass [4]; [16]): 15 | Wheat plant response rating (wheat; 125 g ai/ha): 0 | Wheat plant response rating (wheat; 500 g ai/ha): 0 | Barnyardgrass plant response rating (0 to 100 scale) (barnyardgrass [5]; 125 g ai/ha): 20 | Plant response rating, Barnyardgrass (barnyardgrass [5]; 500 g ai/ha, visual rating): 60 | Oat, Wild plant response rating (wild oat; 125 g ai/ha): 0 | Oat, Wild plant response rating (wild oat; 500 g ai/ha): 0 | Foxtail, Giant plant response rating (0 to 100 scale) (giant foxtail; [11]): 0 | Plant response rating, Foxtail, Giant (giant foxtail; [12]): 30 | Foxtail, Giant plant response rating (giant foxtail; 125 g ai/ha, visual rating): 10 | Foxtail, Giant plant response rating (giant foxtail; 500 g ai/ha, visual rating): 30 | Rice plant response rating (rice [6]): 50 | Surinam Grass plant response rating (0 to 100 scale) (Surinam grass; [11]): 0 | Plant response rating, Surinam Grass (Surinam grass; [12]): 30 | Surinam Grass plant response rating (Surinam grass; 125 g ai/ha, visual rating): 10 | Surinam Grass plant response rating (Surinam grass; 500 g ai/ha, visual rating): 20 | Velvetleaf plant response rating (0 to 100 scale) (velvetleaf; [11]): 20 | Plant response rating, Velvetleaf (velvetleaf; [12]): 40 | Velvetleaf plant response rating (velvetleaf; 125 g ai/ha, visual rating): 30 | Velvetleaf plant response rating (velvetleaf; 500 g ai/ha, visual rating): 40 | Sedge, Umbrella plant response rating [7]: 90 | Ducksalad plant response rating (ducksalad [8]; [13]): 0 | Ducksalad plant response rating (ducksalad [8]; [14]): 0 | Ducksalad plant response rating (ducksalad [8]; [15]): 30 | Plant response rating, Ducksalad (ducksalad [8]; [16]): 80 | Corn plant response rating (0 to 100 scale) (corn; [11]): 0 | Plant response rating, Corn (corn; [12]): 0 | Corn plant response rating (corn; 125 g ai/ha, visual rating): 10 | Corn plant response rating (corn; 500 g ai/ha, visual rating): 20 | Morningglory plant response rating (0 to 100 scale) (morningglory; [11]): 10 | Plant response rating, Morningglory (morningglory; [12]): 20 | Morningglory plant response rating (morningglory; 125 g ai/ha, visual rating): 30 | Morningglory plant response rating (morningglory; 500 g ai/ha, visual rating): 70 | Rice plant response rating (0 to 100 scale) (rice [9]; 125 g ai/ha): 10 | Plant response rating, Rice (rice [9]; 500 g ai/ha, visual rating): 50 | Lambsquarters plant response rating (0 to 100 scale) (lambsquarters; [11]): 80 | Plant response rating, Lambsquarters (lambsquarters; [12]): 90 | Lambsquarters plant response rating (lambsquarters; 125 g ai/ha, visual rating): 50 | Lambsquarters plant response rating (lambsquarters; 500 g ai/ha, visual rating): 60 | Blackgrass plant response rating (blackgrass; 125 g ai/ha): 0 | Blackgrass plant response rating (blackgrass; 500 g ai/ha): 0 | Barnyardgrass plant response rating (barnyardgrass [10]): 40
